Experimental data taken from ChEMBL document CHEMBL1201862, “PubChem BioAssay data set” (2004).
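Five compound concentrations were applied to cells in 96-well plates for 48 hours; endpoints were derived by simple linear interpolation of the resulting dose-response curve. GI50: concentration for 50% inhibition of growth.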 The source made the active and inactive calls. No stated cut-off is given here; in the data, active = GI50 up to about 1.1 µM and inactive = higher.

Tests used:
Test in all cases: inhibition of tumour cell growth, NCI panel, 48 h
[1] = system: 786-0
[2] = system: A498
[3] = system: A549
[4] = system: ACHN
[5] = system: CCRF-CEM
[6] = system: COLO 205
[7] = system: DLD-1
[8] = system: DMS-114
[9] = system: DMS-273
[10] = system: EKVX
[11] = system: HCC 2998
[12] = system: HCT-116
[13] = system: HL-60
[14] = system: HOP-62
[15] = system: HOP-92
[16] = system: HT-29
[17] = system: IGROV-1
[18] = system: K562
[19] = system: KM-20L2
[20] = system: KM12
[21] = system: LOX IMVI
[22] = system: LXFL 529
[23] = system: M14
[24] = system: M19-MEL
[25] = system: MOLT-4
[26] = system: Malme-3M
[27] = system: NCI-H23
[28] = system: NCI-H460
[29] = system: NCI-H522
[30] = system: OVCAR-3
[31] = system: OVCAR-5
[32] = system: OVCAR-8
[33] = system: RPMI-8226
[34] = system: RXF 393
[35] = system: RXF 631
[36] = system: SF-539
[37] = system: SK-MEL-28
[38] = system: SK-MEL-2
[39] = system: SK-OV-3
[40] = system: SNB-19
[41] = system: SNB-75
[42] = system: SNB-78
[43] = system: SW-620
[44] = system: TK-10
[45] = system: U-251
[46] = system: UACC-257
[47] = system: UACC-62
[48] = system: UO-31
[49] = system: XF498
[50] = system: CAKI-1
[51] = system: HCT-15
[52] = system: NCI-H226
[53] = system: SF-268
[54] = system: SF-295
[55] = system: SN12C
[56] = system: SR

NC(=O)NC12CC3CC(CC(F)(C3)C1)C2 was tested, and the GI50 [1] was > 100 µM (inactive), the GI50 [2] was > 100 µM (inactive) and the GI50 [3] was > 100 µM (inactive). The GI50 [4] was > 100 µM (inactive), the GI50 [5] was > 100 µM (inactive) and the GI50 [6] was > 100 µM (inactive). The GI50 [7] was > 100 µM (inactive), the GI50 [8] was > 100 µM (inactive) and the GI50 [9] was > 100 µM (inactive). For the same compound, the GI50 [10] was > 100 µM (inactive), the GI50 [11] was > 100 µM (inactive) and the GI50 [12] was > 100 µM (inactive). The GI50 [13] was > 100 µM (inactive), the GI50 [14] was > 100 µM (inactive) and the GI50 [15] was > 100 µM (inactive). For the same compound, the GI50 [16] was > 100 µM (inactive), the GI50 [17] was > 100 µM (inactive) and the GI50 [18] was > 100 µM (inactive). For the same compound, the GI50 [19] was > 100 µM (inactive), the GI50 [20] was > 100 µM (inactive) and the GI50 [21] was > 100 µM (inactive). For the same compound, the GI50 [22] was > 100 µM (inactive), the GI50 [23] was > 100 µM (inactive) and the GI50 [24] was > 100 µM (inactive). The GI50 [25] was > 100 µM (inactive), the GI50 [26] was > 100 µM (inactive) and the GI50 [27] was > 100 µM (inactive). The GI50 [28] was > 100 µM (inactive), the GI50 [29] was > 100 µM (inactive) and the GI50 [30] was > 100 µM (inactive). The GI50 [31] was > 100 µM (inactive), the GI50 [32] was > 100 µM (inactive) and the GI50 [33] was > 100 µM (inactive). The GI50 [34] was > 100 µM (inactive), the GI50 [35] was > 100 µM (inactive) and the GI50 [36] was > 100 µM (inactive). For the same compound, the GI50 [37] was > 100 µM (inactive), the GI50 [38] was > 100 µM (inactive) and the GI50 [39] was > 100 µM (inactive). The GI50 [40] was > 100 µM (inactive), the GI50 [41] was 87.9 µM (inactive) and the GI50 [42] was > 100 µM (inactive). For the same compound, the GI50 [43] was > 100 µM (inactive), the GI50 [44] was > 100 µM (inactive) and the GI50 [45] was > 100 µM (inactive). The GI50 [46] was > 100 µM (inactive), the GI50 [47] was > 100 µM (inactive) and the GI50 [48] was > 100 µM (inactive). The GI50 [49] was > 100 µM (inactive).
With COc1cccc2c1N[S@](=O)S2 the GI50 [1] was > 100 µM (inactive), the GI50 [3] was > 100 µM (inactive) and the GI50 [4] was > 100 µM (inactive). The GI50 [50] was > 100 µM (inactive), the GI50 [5] was 36.7 µM (inactive) and the GI50 [7] was 72.9 µM (inactive). The GI50 [9] was > 100 µM (inactive), the GI50 [10] was > 100 µM (inactive) and the GI50 [12] was > 100 µM (inactive). The GI50 [51] was 82.4 µM, the GI50 [13] was > 100 µM (inactive) and the GI50 [15] was > 100 µM (inactive). The GI50 [16] was > 100 µM (inactive), the GI50 [17] was > 100 µM (inactive) and the GI50 [18] was 46 µM (inactive). The GI50 [19] was > 100 µM (inactive), the GI50 [20] was > 100 µM (inactive) and the GI50 [21] was 50.8 µM (inactive). The GI50 [22] was 35.3 µM (inactive), the GI50 [23] was > 100 µM (inactive) and the GI50 [24] was 35.6 µM (inactive). For the same compound, the GI50 [25] was 42.1 µM (inactive), the GI50 [26] was > 100 µM (inactive) and the GI50 [52] was > 100 µM (inactive). For the same compound, the GI50 [27] was > 100 µM (inactive), the GI50 [29] was 86.1 µM (inactive) and the GI50 [30] was > 100 µM (inactive). For the same compound, the GI50 [33] was 63.4 µM (inactive), the GI50 [35] was > 100 µM (inactive) and the GI50 [53] was 76 µM (inactive). The GI50 [54] was 95.7 µM (inactive), the GI50 [36] was > 100 µM (inactive) and the GI50 [37] was > 100 µM (inactive). The GI50 [38] was > 100 µM (inactive), the GI50 [39] was > 100 µM (inactive) and the GI50 [55] was 63.5 µM (inactive). For the same compound, the GI50 [40] was 38.1 µM (inactive), the GI50 [41] was 81.5 µM (inactive) and the GI50 [42] was > 100 µM (inactive). The GI50 [56] was 70.6 µM (inactive), the GI50 [43] was > 100 µM (inactive) and the GI50 [44] was > 100 µM (inactive). For the same compound, the GI50 [45] was 39.3 µM (inactive), the GI50 [46] was > 100 µM (inactive) and the GI50 [47] was 38.6 µM (inactive). The GI50 [48] was 42 µM (inactive) and the GI50 [49] was 50.8 µM (inactive).
